Test results published in US20230017532A1 (Hoffmann-La Roche Inc., priority 2018, published 2023).
Where a name gives a salt, the structure may show the parent alone.

The compounds below were run on Acinetobacter baumannii ATCC17961 (assay: Antimicrobial susceptibility testing: 90% growth inhibitory concentration (IC90) determination, Iso-Sensitest broth, OD 600 nm). Conditions: 90% growth inhibitory concentration, Acinetobacter baumannii ATCC17961, Iso-Sensitest broth, OD 600 nm over 16 h; read-out: ATCC 17961 IC90.
Type: cell-based
In short: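 Growth of bacteria (~5×10^5 CFU/ml, Iso-Sensitest medium, 35±2 °C) was followed by OD at 600 nm at 20-min intervals over 16 h against a 10-point twofold compound series (e.g. 50–0.097 μM final). Concentration giving 90% inhibition in log phase was reported.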

Compound | IC90 [nM]
COc1ccc(-c2cnc3c(Nc4ccc(C(=O)NCCCNCCO)c(Cl)c4)nccn23)c(F)c1F [Example 221, 2-chloro-4-((3-(2,3-difluoro-4-methoxyphenyl)imidazo[1,2-a]pyrazin-8-yl)amino)-N-(3-((2-hydroxyethyl)amino)propyl) benzamide 2-chloro-4-((3-(2,3-difluoro-4-methoxyphenyl)imidazo[1,2-a]pyrazin-8-yl)amino)-N-(3-((2-hydroxyethyl)amino)propyl)benzamide] | 80
CCc1cc(Nc2nccn3c(-c4ccc(OC)c(F)c4F)cnc23)ccc1C(=O)NCCCCCN(C)C [Example 223, 4-((3-(2,3-difluoro-4-methoxyphenyl)imidazo[1,2-a]pyrazin-8-yl)amino)-N-(5-(dimethylamino)pentyl)-2-ethylbenzamide] | 30
CCOCCCNC(=O)c1ccc(Nc2nccn3c(-c4ccc(OC)c(F)c4F)cnc23)cc1CC [Example 224, 4-((3-(2,3-difluoro-4-methoxyphenyl)imidazo[1,2-a]pyrazin-8-yl)amino)-N-(3-ethoxypropyl)-2-ethylbenzamide] | 180
C#CCNCCCNC(=O)c1ccc(Nc2nccn3c(-c4ccc(OC)c(F)c4F)cnc23)cc1CC [Example 225, 4-((3-(2,3-difluoro-4-methoxyphenyl)imidazo[1,2-a]pyrazin-8-yl)amino)-2-ethyl-N-(3-(prop-2-yn-1-ylamino)propyl) benzamide] | 50
C#CCNCCCCNC(=O)c1ccc(Nc2nccn3c(-c4ccc(OC)c(F)c4F)cnc23)cc1CC [Example 227, 4-[[3-(2,3-difluoro-4-methoxy-phenyl)imidazo[1,2-a]pyrazin-8-yl]amino]-2-ethyl-N-[4-(prop-2-ynylamino)butyl]benzamide] | 30
CCc1cc(Nc2nccn3c(-c4ccc(OC)c(F)c4F)cnc23)ccc1C(=O)N[C@H](C)CNCCCCNCCCN [Example 228, (R)-N-(1-((4-((3-aminopropyl)amino)butyl)amino)propan-2-yl)-4-((3-(2,3-difluoro-4-methoxyphenyl)imidazo[1,2-a]pyrazin-8-yl)amino)-2-ethylbenzamide trihydrochloride] | 510

Next, values leading:

IC90 [nM] | Compound
40 | CCc1cc(Nc2nccn3c(-c4cc(F)c(OC)cc4F)cnc23)ccc1C(=O)NCCOCCN [Example 222, N-[2-(2-amino-ethoxy)ethyl]-4-[[3-(2,5-difluoro-4-methoxy-phenyl)imidazo[1,2-a]pyrazin-8-yl]amino]-2-ethyl-benzamide]
40 | CCc1cc(Nc2nccn3c(-c4ccc(OC)cc4C(F)F)cnc23)ccc1C(=O)NCCOCCN [Example 229, N-[2-(2-amino-ethoxy)ethyl]-4-[[3-[2-(difluoro-methyl)-4-methoxy-phenyl]imidazo [1,2-a]pyrazin-8-yl]amino]-2-ethyl-benzamide]
60 | CCc1cc(Nc2nccn3c(-c4ccc(OC)c(F)c4C(F)(F)F)cnc23)ccc1C(=O)NCCOCCN [Example 231]
